Results: article PMC11243196, “Identification of Benzothiazoles Bearing 1,3,4-Thiadiazole as Antiproliferative Hybrids Targeting VEGFR-2 and BRAF Kinase: Design, Synthesis, BIO Evaluation and In Silico Study” (Molecules, 2024)
Read-outs that look alike come from different tables or passages of the source.

Key:
[1] = tested on: MCF-7; assay: MTT antiproliferative assay, MCF-7; type: cell-based; conditions: Homo sapiens, MCF7; breast cancer MCF-7, MTT
[2] = molecular target: VEGFR-2 (Homo sapiens, UniProt P35968); assay: In vitro VEGFR-2 kinase inhibitory assay; type: biochemical
Procedure: […]. The in vitro assays were carried out as previously described.

[3] = molecular target: BRAF (V600E) (Homo sapiens, UniProt P15056, V600E); assay: In vitro BRAF (V600E) kinase inhibitory assay; type: biochemical
[4] = tested on: WI-38 cells; assay: Cytotoxicity against normal human cells, WI-38; type: cell-based; conditions: normal lung cell line WI-38
[5] = tested on: HCT-116; assay: MTT antiproliferative assay, HCT-116; type: cell-based; conditions: Homo sapiens, HCT-116, read-out: IC50 (µM) HCT-116
[6] = tested on: HePG-2, HCT-116 and MCF-7 cell lines; assay: MTT antiproliferative assay, range over the three cancer cell lines; type: cell-based; conditions: Homo sapiens
Procedure: Sorafenib was used as a positive control medication.
As previously documented, the in vitro anticancer efficacy of the produced hybrids was evaluated using an MTT test. The used cell lines was bought from Vacsera (Giza, Egypt).

[7] = tested on: HePG-2; assay: MTT antiproliferative assay, HePG-2; type: cell-based; conditions: Homo sapiens, HepG2; hepatocellular carcinoma HePG-2, MTT
[8] = tested on: MCF-7 cells; assay: Annexin V-FITC/PI apoptosis detection; type: cell-based, human; conditions: 24 h, untreated control 0.89%
Excerpt: The level of apoptosis was quantified utilizing the MCF-7 cell lines and Annexin V-FITC/PI apoptosis detection kit, as documented in the literature.

[9] = tested on: MCF-7 cells; assay: Cell cycle analysis by DNA flow cytometry (PI); type: cell-based, human
Procedure: To ascertain the precise cell cycle phase at which our highly promising chemical 4f causes the MCF7 breast cancer cells to cease their progression, we conducted cell cycle analysis and apoptotic experiments utilizing DNA flow cytometry.
As previously documented, the cell cycle study was conducted on the MCF-7 cell lines, stained with PI and examined using a Calibur flow cytometer.

[10] = tested on: VEGFR-2 in MCF-7 cells; design: method as in PMID 32045054; conditions: cited from earlier work
[11] = tested on: FGFR-1; design: method as in PMID 32045054; conditions: read-out: IC50 against FGFR-1; cited from earlier work
[12] = tested on: PDGFR-β; design: method as in PMID 32045054; conditions: read-out: IC50 against PDGFR-β; cited from earlier work
[13] = tested on: CRAF; conditions: read-out: IC50 against CRAF; cited from earlier work
[14] = tested on: BRAFV600; conditions: read-out: IC50 against BRAFV600; cited from earlier work
[15] = tested on: BRAF^V600E; design: method as in PMID 23906342; conditions: read-out: IC50 against BRAF^V600E; cited from earlier work
[16] = one range for the group 4a, 4f, 4l, 4r over three cancer cell lines, read-out: IC50 values ranging, against three cancer cell lines
[17] = read-out: IC50 range of the compound over the cancer cell lines
[18] = range over HePG-2, HCT-116, MCF-7, read-out: IC50 range of the compound over the cancer cell lines

Sequence of BRAF (V600E) (P15056 whole entry V600E): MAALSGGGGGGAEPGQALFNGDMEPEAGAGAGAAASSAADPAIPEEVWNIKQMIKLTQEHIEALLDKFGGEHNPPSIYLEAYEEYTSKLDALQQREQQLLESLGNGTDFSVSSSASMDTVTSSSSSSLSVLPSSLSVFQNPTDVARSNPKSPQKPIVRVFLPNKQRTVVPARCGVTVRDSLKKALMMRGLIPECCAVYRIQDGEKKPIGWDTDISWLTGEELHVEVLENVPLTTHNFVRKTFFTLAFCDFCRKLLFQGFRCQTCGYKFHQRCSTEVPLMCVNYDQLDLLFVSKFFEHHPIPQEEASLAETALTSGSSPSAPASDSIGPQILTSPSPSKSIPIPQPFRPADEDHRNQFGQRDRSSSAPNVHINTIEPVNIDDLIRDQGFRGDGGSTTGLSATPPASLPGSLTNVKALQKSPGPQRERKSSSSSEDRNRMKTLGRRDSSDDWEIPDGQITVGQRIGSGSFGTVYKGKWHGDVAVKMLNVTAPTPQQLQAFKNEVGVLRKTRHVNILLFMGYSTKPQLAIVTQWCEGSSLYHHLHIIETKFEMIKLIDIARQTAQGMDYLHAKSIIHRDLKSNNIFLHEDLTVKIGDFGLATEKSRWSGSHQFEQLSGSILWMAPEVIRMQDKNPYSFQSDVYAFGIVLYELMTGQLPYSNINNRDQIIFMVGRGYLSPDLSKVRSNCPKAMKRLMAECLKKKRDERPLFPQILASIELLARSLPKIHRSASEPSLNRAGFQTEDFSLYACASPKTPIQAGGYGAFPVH
Sequence of VEGFR-2 (P35968 20-1356): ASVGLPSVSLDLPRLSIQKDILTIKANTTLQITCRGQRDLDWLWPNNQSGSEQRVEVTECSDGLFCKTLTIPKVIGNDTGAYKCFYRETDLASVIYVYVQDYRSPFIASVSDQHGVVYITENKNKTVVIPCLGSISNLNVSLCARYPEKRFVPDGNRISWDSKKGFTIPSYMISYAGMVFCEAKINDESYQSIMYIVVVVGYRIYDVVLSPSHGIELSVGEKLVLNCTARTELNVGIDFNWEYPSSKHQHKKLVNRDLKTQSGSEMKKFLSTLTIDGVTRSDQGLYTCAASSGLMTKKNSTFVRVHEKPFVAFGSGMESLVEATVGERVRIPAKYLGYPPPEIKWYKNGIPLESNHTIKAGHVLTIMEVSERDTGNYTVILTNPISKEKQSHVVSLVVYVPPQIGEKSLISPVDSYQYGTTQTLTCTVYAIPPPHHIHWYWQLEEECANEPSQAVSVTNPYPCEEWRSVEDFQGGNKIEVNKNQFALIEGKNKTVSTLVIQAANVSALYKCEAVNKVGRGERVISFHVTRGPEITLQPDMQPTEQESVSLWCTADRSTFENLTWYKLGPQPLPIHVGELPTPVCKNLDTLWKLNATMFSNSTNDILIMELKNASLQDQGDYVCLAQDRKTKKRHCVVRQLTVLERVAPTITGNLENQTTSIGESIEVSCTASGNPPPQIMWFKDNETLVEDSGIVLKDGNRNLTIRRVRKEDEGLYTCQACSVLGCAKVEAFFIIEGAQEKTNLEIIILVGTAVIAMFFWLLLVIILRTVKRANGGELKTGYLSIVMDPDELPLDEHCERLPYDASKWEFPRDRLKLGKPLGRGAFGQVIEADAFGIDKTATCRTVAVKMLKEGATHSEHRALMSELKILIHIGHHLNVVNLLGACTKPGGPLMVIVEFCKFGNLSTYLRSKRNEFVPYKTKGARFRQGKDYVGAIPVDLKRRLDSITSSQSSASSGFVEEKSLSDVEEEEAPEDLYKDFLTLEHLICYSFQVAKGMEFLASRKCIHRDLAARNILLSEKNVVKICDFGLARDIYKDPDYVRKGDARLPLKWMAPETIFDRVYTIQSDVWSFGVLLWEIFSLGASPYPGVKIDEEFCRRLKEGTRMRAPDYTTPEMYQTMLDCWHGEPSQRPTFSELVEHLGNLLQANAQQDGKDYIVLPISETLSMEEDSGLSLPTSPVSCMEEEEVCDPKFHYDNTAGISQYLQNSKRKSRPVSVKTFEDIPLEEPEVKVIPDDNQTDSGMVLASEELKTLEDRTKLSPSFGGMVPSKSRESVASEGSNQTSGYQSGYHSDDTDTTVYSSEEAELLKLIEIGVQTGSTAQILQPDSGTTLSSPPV

| Structure (SMILES) | IC50 [1] [µM] | IC50 [5] [µM] | IC50 [6, 18] [µM] | IC50 [4] [µM] | IC50 [7] [µM] | other results |
| --- | --- | --- | --- | --- | --- | --- |
| O=C(CSc1nnc(NC(=O)Nc2ccccc2)s1)Nc1nc2ccccc2s1 [4a, N-(Benzo[d]thiazol-2-yl)-2-((5-(3-phenylureido)-1,3,4-thiadiazol-2-yl)thio)acetamide] | 5.91 ± 0.3 | 9.94 ± 0.8 |  | 66.2 ± 3.5 | 12.9 ± 0.9 | IC50 [2]: 0.342 µM; IC50 [3]: 0.677 µM; melting point: 273 to 275 °C; IC50 [6, 16]: 3.58 to 15.4 µM; IC50 [6, 17]: 5.91 to 12.9 µM |
| Cc1ccc(NC(=O)Nc2nnc(SCC(=O)Nc3nc4ccccc4s3)s2)cc1 [4b, N-(Benzo[d]thiazol-2-yl)-2-((5-(3-(p-tolyl)ureido)-1,3,4-thiadiazol-2-yl)thio)acetamide] | 46.5 ± 2.6 | 61.8 ± 3.3 | 46.5 to 61.8 | 81 ± 4.2 | 48.2 ± 2.5 |  |
| O=C(CSc1nnc(NC(=O)Nc2ccc(F)cc2)s1)Nc1nc2ccccc2s1 [4e, N-(Benzo[d]thiazol-2-yl)-2-((5-(3-(4-fluorophenyl)ureido)-1,3,4-thiadiazol-2-yl)thio)acetamide] | 67.1 ± 3.4 | 82.5 ± 4.2 | 63.4 to 82.5 | > 100 | 63.4 ± 3.4 |  |
| O=C(CSc1nnc(NC(=O)Nc2ccc(C(F)(F)F)c(Cl)c2)s1)Nc1nc2ccccc2s1 [4f, N-(Benzo[d]thiazol-2-yl)-2-((5-(3-(3-chloro-4-(trifluoromethyl)phenyl)ureido)-1,3,4-thiadiazol-2-yl)thio)acetamide] | 2.74 ± 0.1 | 6.21 ± 0.4 |  | 41.2 ± 2.4 | 5.05 ± 0.3 | IC50 [2]: 0.071 µM; proportion of apoptotic cells (early and late) [8]: 37.83%; IC50 [3]: 0.194 µM; Cell Cycle Distribution (%) G2-M ([9]; untreated 15.85%): 12.77%; Cell Cycle Distribution (%) S ([9]; untreated 26.33%): 22.72%; Cell Cycle Distribution (%) G0-G1 ([9]; untreated 57.82%): 64.51%; IC50 [6, 16]: 3.58 to 15.4 µM; IC50 [6, 17]: 2.74 to 5.05 µM |
| COc1ccc(NC(=O)Nc2nnc(SCC(=O)Nc3nc4ccc(C)cc4s3)s2)cc1 [4i, 2-((5-(3-(4-Methoxyphenyl)ureido)-1,3,4-thiadiazol-2-yl)thio)-N-(6-methylbenzo[d]thiazol-2-yl)acetamide] | 59.5 ± 3.1 | 76.7 ± 3.9 | 53.1 to 76.7 | 45.5 ± 2.6 | 53.1 ± 2.7 |  |
| Cc1ccc2nc(NC(=O)CSc3nnc(NC(=O)Nc4ccc(Cl)cc4)s3)sc2c1 [4j, 2-((5-(3-(4-Chlorophenyl)ureido)-1,3,4-thiadiazol-2-yl)thio)-N-(6-methylbenzo[d]thiazol-2-yl)acetamide] | 84.2 ± 4.2 | > 100 |  | > 100 | 78.1 ± 3.9 |  |
| Cc1ccc2nc(NC(=O)CSc3nnc(NC(=O)Nc4ccc(F)cc4)s3)sc2c1 [4k, 2-((5-(3-(4-Fluorophenyl)ureido)-1,3,4-thiadiazol-2-yl)thio)-N-(6-methylbenzo[d]thiazol-2-yl)acetamide] | 69.5 ± 3.5 | 92 ± 4.6 |  | 58.5 ± 3.2 | 64.2 ± 3.7 |  |
| Cc1ccc2nc(NC(=O)CSc3nnc(NC(=O)Nc4ccc(C(F)(F)F)c(Cl)c4)s3)sc2c1 [4l, 2-((5-(3-(3-Chloro-4-(trifluoromethyl)phenyl)ureido)-1,3,4-thiadiazol-2-yl)thio)-N-(6-methylbenzo[d]thiazol-2-yl)acetamide] | 9.46 ± 0.6 | 13.5 ± 1 | 9.46 to 15.4 | 47.5 ± 2.7 | 15.4 ± 1.2 | IC50 [6, 16]: 3.58 to 15.4 µM |
| Cc1ccc(NC(=O)Nc2nnc(SCC(=O)Nc3nc4ccc(Cl)cc4s3)s2)cc1 [4n, N-(6-Chlorobenzo[d]thiazol-2-yl)-2-((5-(3-(p-tolyl)ureido)-1,3,4-thiadiazol-2-yl)thio)acetamide] | 36.7 ± 2.1 | 44.8 ± 2.5 |  | > 100 | 32.8 ± 2.4 |  |
| COc1ccc(NC(=O)Nc2nnc(SCC(=O)Nc3nc4ccc(Cl)cc4s3)s2)cc1 [4o, N-(6-Chlorobenzo[d]thiazol-2-yl)-2-((5-(3-(4-methoxyphenyl)ureido)-1,3,4-thiadiazol-2-yl)thio)acetamide] | 43.5 ± 2.4 | 51.6 ± 2.8 |  | 26.4 ± 1.8 | 35 ± 2.4 |  |
| O=C(CSc1nnc(NC(=O)Nc2ccc(F)cc2)s1)Nc1nc2ccc(Cl)cc2s1 [4q, N-(6-Chlorobenzo[d]thiazol-2-yl)-2-((5-(3-(4-fluorophenyl)ureido)-1,3,4-thiadiazol-2-yl)thio)acetamide] | 21.7 ± 1.5 | 25.4 ± 1.8 | 21.7 to 27.4 | 49.7 ± 2.9 | 27.4 ± 2.2 |  |
| O=C(CSc1nnc(NC(=O)Nc2ccc(C(F)(F)F)c(Cl)c2)s1)Nc1nc2ccc(Cl)cc2s1 [4r, 2-((5-(3-(3-Chloro-4-(trifluoromethyl)phenyl)ureido)-1,3,4-thiadiazol-2-yl)thio)-N-(6-chlorobenzo[d]thiazol-2-yl)acetamide] | 3.85 ± 0.2 | 7.81 ± 0.6 |  | 38.8 ± 2.2 | 8.1 ± 0.6 | IC50 [2]: 0.794 µM; IC50 [3]: 1.36 µM; IC50 [6, 16]: 3.58 to 15.4 µM; IC50 [6, 17]: 3.85 to 8.1 µM |
| COc1cc(/C=N/NC(=O)COc2ccc(-c3nc4ccccc4s3)cc2OC)ccc1O [III] |  |  |  |  |  | inhibitory effect on VEGFR-2 in MCF-7 cells [10]: 83%; IC50 [11]: 0.19 µM; IC50 [12]: 0.08 µM |
| CNC(=O)c1cc(Oc2ccc3nc(NC(=O)Nc4ccc(Cl)c(Cl)c4)sc3c2)ccn1 [IV] |  |  |  |  |  | IC50 [13]: 0.015 µM; IC50 [14]: 0.095 µM |
| N#Cc1c(Oc2ccc(F)c(NC(=O)Cc3cccc(C(F)(F)F)c3)c2)ccc2nc(NC(=O)C3CC3)sc12 [TAK-632] |  |  |  |  |  | IC50 [15]: 0.0024 µM |

The remaining compounds from weak to strong by IC50 [1], led by results:

| IC50 [1] [µM] | IC50 [5] [µM] | IC50 [6, 18] [µM] | Structure (SMILES) | IC50 [4] [µM] | IC50 [7] [µM] | other results |
| --- | --- | --- | --- | --- | --- | --- |
| 62.6 ± 3.2 | 71.3 ± 3.7 |  | O=C(CSc1nnc(NC(=O)Nc2ccc(Cl)cc2)s1)Nc1nc2ccc(Cl)cc2s1 [4p, N-(6-Chlorobenzo[d]thiazol-2-yl)-2-((5-(3-(4-chlorophenyl)ureido)-1,3,4-thiadiazol-2-yl)thio)acetamide] | 94.1 ± 4.9 | 57 ± 3.1 |  |
| 54.5 ± 2.9 | 65.5 ± 3.5 | 42.2 to 65.5 | COc1ccc(NC(=O)Nc2nnc(SCC(=O)Nc3nc4ccccc4s3)s2)cc1 [4c, N-(Benzo[d]thiazol-2-yl)-2-((5-(3-(4-methoxyphenyl)ureido)-1,3,4-thiadiazol-2-yl)thio)acetamide] | 91.3 ± 4.6 | 42.2 ± 2.6 |  |
| 40.6 ± 2.3 | 56.2 ± 3 | 37.4 to 56.2 | Cc1ccc(NC(=O)Nc2nnc(SCC(=O)Nc3nc4ccc(C)cc4s3)s2)cc1 [4h, N-(6-Methylbenzo[d]thiazol-2-yl)-2-((5-(3-(p-tolyl)ureido)-1,3,4-thiadiazol-2-yl)thio)acetamide] | 87.8 ± 4.4 | 37.4 ± 2.5 |  |
| 33.6 ± 2 | 39.7 ± 2.3 | 30.2 to 33.6 | O=C(CSc1nnc(NC(=O)Nc2ccc(Cl)cc2)s1)Nc1nc2ccccc2s1 [4d, N-(Benzo[d]thiazol-2-yl)-2-((5-(3-(4-chlorophenyl)ureido)-1,3,4-thiadiazol-2-yl)thio)acetamide] | 89.1 ± 4.3 | 30.2 ± 2.3 |  |
| 28.9 ± 1.9 | 34.4 ± 2.1 | 28.9 to 34.4 | O=C(CSc1nnc(NC(=O)Nc2ccccc2)s1)Nc1nc2ccc(Cl)cc2s1 [4m, N-(6-Chlorobenzo[d]thiazol-2-yl)-2-((5-(3-phenylureido)-1,3,4-thiadiazol-2-yl)thio)acetamide] | 74.5 ± 3.8 | 29.8 ± 2 |  |
| 16.5 ± 1.2 | 19.6 ± 1.3 | 16.5 to 22.9 | Cc1ccc2nc(NC(=O)CSc3nnc(NC(=O)Nc4ccccc4)s3)sc2c1 [4g, N-(6-Methylbenzo[d]thiazol-2-yl)-2-((5-(3-phenylureido)-1,3,4-thiadiazol-2-yl)thio)acetamide] | 79.4 ± 4 | 22.9 ± 1.8 |  |
